Results: patent publication US12077503B2, “Substituted cyclic amides and their use as herbicides” (FMC CORPORATION, priority 2015, dated 2024)

How the values were obtained:
Type in all cases: in vivo
[1] = system: barnyardgrass (Echinochloa crus-galli); experiment: Test G Pre-Emergence Protocol; conditions: Echinochloa crus-galli, pre-emergence, 312 h, evaluated after 13 days
Outline: (§1)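 Visual injury (0–100) at day 13 after a single pre-emergence spray. Rates: 15.625, 62.5, 250 g/ha in acetone–water 50:50 with 0.5% Tween 20. Growth conditions: 24/16° C, 14 h light, 65% humidity.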

corn (Zea mays) [2] = experiment: Test G Pre-Emergence Protocol; conditions: Zea mays, pre-emergence, 312 h, evaluated after 13 days
Outline: as §1

[3] = system: giant foxtail (Setaria faberi); experiment: Test G Pre-Emergence Protocol; conditions: Setaria faberi, pre-emergence, 312 h, evaluated after 13 days
Outline: as §1

[4] = system: ivy-leaved morning glory (Ipomoea hederacea); experiment: Test G Pre-Emergence Protocol; conditions: Ipomoea, pre-emergence, 312 h, evaluated after 13 days
Outline: as §1

[5] = system: redroot pigweed (Amaranthus retroflexus); experiment: Test G Pre-Emergence Protocol; conditions: Amaranthus retroflexus, pre-emergence, 312 h, evaluated after 13 days
Outline: as §1

[6] = system: velvetleaf (Abutilon theophrasti); experiment: Test G Pre-Emergence Protocol; conditions: Abutilon theophrasti, pre-emergence, 312 h, evaluated after 13 days
Outline: as §1

[7] = system: barnyardgrass (Echinochloa crus-galli); experiment: Test G Post-Emergence Protocol; conditions: Echinochloa crus-galli, post-emergence, 312 h
Outline: (§2)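 Values are percent visual injury at 13 days after treatment (0 none, 100 total). Treatment was a post-emergence spray at 15.625, 62.5 or 250 g/ha on 8-day-old pot plants kept at 24/16 °C.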

corn (Zea mays) [8] = experiment: Test G Post-Emergence Protocol; conditions: Zea mays, post-emergence, 312 h
Outline: as §2

[9] = system: giant foxtail (Setaria faberi); experiment: Test G Post-Emergence Protocol; conditions: Setaria faberi, post-emergence, 312 h
Outline: as §2

[10] = system: ivy-leaved morning glory (Ipomoea hederacea); experiment: Test G Post-Emergence Protocol; conditions: Ipomoea, post-emergence, 312 h
Outline: as §2

[11] = system: redroot pigweed (Amaranthus retroflexus); experiment: Test G Post-Emergence Protocol; conditions: Amaranthus retroflexus, post-emergence, 312 h
Outline: as §2

[12] = system: velvetleaf (Abutilon theophrasti); experiment: Test G Post-Emergence Protocol; conditions: Abutilon theophrasti, post-emergence, 312 h
Outline: as §2

Which pest or weed control at 15.625 g/ha ([1]; 15.625 g ai/ha, read-out: Barnyard grass damage rating (100=total damage to plant; 0=no damage to plant)) does the source give for COc1c(Cl)ccc([C@H]2CNC(=O)[C@@H]2C(=O)Nc2cccc(F)c2F)c1F (racemic) [Compound 1472] here?
Its pest or weed control at 15.625 g/ha is 10%.

What about the pest or weed control at 62.5 g/ha ([1]; 62.5 g ai/ha, 100=total damage to plant, 0=no damage to plant, read-out: plant damage rating, Barnyardgrass) of the same compound?
Its pest or weed control at 62.5 g/ha is 40%.

What about the pest or weed control at 250 g/ha ([1]; 250 g ai/ha, read-out: Barnyardgrass damage rating (100=total damage to plant; 0=no damage to plant)) of the same compound?
The pest or weed control at 250 g/ha was 80%.

What about the plant injury at 15.625 g/ha (corn (Zea mays) [2]; 15.625 g ai/ha, read-out: Corn damage rating (100=total damage to plant; 0=no damage to plant)) of the same compound?
Its plant injury at 15.625 g/ha is 0%.

What about the plant injury at 62.5 g/ha (corn (Zea mays) [2]; 62.5 g ai/ha, 100=total damage to plant, 0=no damage to plant, read-out: plant damage rating, Corn) of the same compound?
The plant injury at 62.5 g/ha was 0%.

And the plant injury at 250 g/ha (corn (Zea mays) [2]; 250 g ai/ha, read-out: Corn damage rating (100=total damage to plant; 0=no damage to plant))?
The plant injury at 250 g/ha was 20%.

And the pest or weed control at 15.625 g/ha ([3]; 15.625 g ai/ha, read-out: Foxtail, Giant damage rating (100=total damage to plant; 0=no damage to plant))?
The pest or weed control at 15.625 g/ha was 10%.

And the pest or weed control at 62.5 g/ha ([3]; 62.5 g ai/ha, 100=total damage to plant, 0=no damage to plant, read-out: plant damage rating, Foxtail, Giant)?
The pest or weed control at 62.5 g/ha was 50%.

And the pest or weed control at 250 g/ha ([3]; 250 g ai/ha, read-out: Foxtail, Giant damage rating (100=total damage to plant; 0=no damage to plant))?
Its pest or weed control at 250 g/ha is 80%.

What about the pest or weed control at 15.625 g/ha ([4]; 15.625 g ai/ha, read-out: Morning-glory, Ivy-leaved damage rating (100=total damage to plant; 0=no damage to plant)) of the same compound?
The pest or weed control at 15.625 g/ha was 0%.

What about the pest or weed control at 62.5 g/ha ([4]; 62.5 g ai/ha, 100=total damage to plant, 0=no damage to plant, read-out: plant damage rating, Morningglory, Ivy-leaved) of the same compound?
Its pest or weed control at 62.5 g/ha is 0%.

And the pest or weed control at 250 g/ha ([4]; 250 g ai/ha, read-out: Morningglory, Ivy-leaved damage rating (100=total damage to plant; 0=no damage to plant))?
Its pest or weed control at 250 g/ha is 0%.

What about the pest or weed control at 15.625 g/ha ([5]; 15.625 g ai/ha, read-out: Pigweed, Redroot damage rating (100=total damage to plant; 0=no damage to plant)) of the same compound?
Its pest or weed control at 15.625 g/ha is 0%.

What about the pest or weed control at 62.5 g/ha ([5]; 62.5 g ai/ha, 100=total damage to plant, 0=no damage to plant, read-out: plant damage rating, Pigweed, Redroot) of the same compound?
The pest or weed control at 62.5 g/ha was 0%.

What about the pest or weed control at 250 g/ha ([5]; 250 g ai/ha, read-out: Pigweed, Redroot damage rating (100=total damage to plant; 0=no damage to plant)) of the same compound?
Its pest or weed control at 250 g/ha is 0%.

What about the pest or weed control at 15.625 g/ha ([6]; 15.625 g ai/ha, read-out: Velvetleaf damage rating (100=total damage to plant; 0=no damage to plant)) of the same compound?
Its pest or weed control at 15.625 g/ha is 0%.

What about the pest or weed control at 62.5 g/ha ([6]; 62.5 g ai/ha, 100=total damage to plant, 0=no damage to plant, read-out: plant damage rating, Velvetleaf) of the same compound?
Its pest or weed control at 62.5 g/ha is 0%.

What about the pest or weed control at 250 g/ha ([6]; 250 g ai/ha, read-out: Velvetleaf damage rating (100=total damage to plant; 0=no damage to plant)) of the same compound?
Its pest or weed control at 250 g/ha is 0%.

What about the pest or weed control at 15.625 g/ha ([7]; 15.625 g ai/ha, evaluated after 13 days (100=total damage to plant; 0=no damage to plant), read-out: Barnyardgrass damage rating) of the same compound?
Its pest or weed control at 15.625 g/ha is 10%.

And the pest or weed control at 62.5 g/ha ([7]; 62.5 g ai/ha, evaluated after 13 days, read-out: Barnyardgrass damage rating (100=total damage to plant; 0=no damage to plant))?
Its pest or weed control at 62.5 g/ha is 30%.

And the pest or weed control at 250 g/ha ([7]; 250 g ai/ha, evaluated after 13 days, read-out: damage to plant, Barnyardgrass (100=total damage to plant; 0=no damage to plant))?
Its pest or weed control at 250 g/ha is 50%.

And the plant injury at 15.625 g/ha (corn (Zea mays) [8]; 15.625 g ai/ha, evaluated after 13 days (100=total damage to plant; 0=no damage to plant), read-out: Corn damage rating)?
The plant injury at 15.625 g/ha was 10%.

And the plant injury at 62.5 g/ha (corn (Zea mays) [8]; 62.5 g ai/ha, evaluated after 13 days, read-out: Corn damage rating (100=total damage to plant; 0=no damage to plant))?
The plant injury at 62.5 g/ha was 20%.

What about the plant injury at 250 g/ha (corn (Zea mays) [8]; 250 g ai/ha, evaluated after 13 days, read-out: damage to plant, Corn (100=total damage to plant; 0=no damage to plant)) of the same compound?
The plant injury at 250 g/ha was 40%.

What about the pest or weed control at 15.625 g/ha ([9]; 15.625 g ai/ha, evaluated after 13 days (100=total damage to plant; 0=no damage to plant), read-out: Foxtail, Giant damage rating) of the same compound?
The pest or weed control at 15.625 g/ha was 10%.

And the pest or weed control at 62.5 g/ha ([9]; 62.5 g ai/ha, evaluated after 13 days, read-out: Foxtail, Giant damage rating (100=total damage to plant; 0=no damage to plant))?
The pest or weed control at 62.5 g/ha was 50%.

What about the pest or weed control at 250 g/ha ([9]; 250 g ai/ha, evaluated after 13 days, read-out: damage to plant, Foxtail, Giant (100=total damage to plant; 0=no damage to plant)) of the same compound?
The pest or weed control at 250 g/ha was 70%.

And the pest or weed control at 15.625 g/ha ([10]; 15.625 g ai/ha, evaluated after 13 days (100=total damage to plant; 0=no damage to plant), read-out: Morningglory, Ivy-leaved damage rating)?
Its pest or weed control at 15.625 g/ha is 20%.

And the pest or weed control at 62.5 g/ha ([10]; 62.5 g ai/ha, evaluated after 13 days, read-out: Morningglory, Ivy-leaved damage rating (100=total damage to plant; 0=no damage to plant))?
The pest or weed control at 62.5 g/ha was 20%.

What about the pest or weed control at 250 g/ha ([10]; 250 g ai/ha, evaluated after 13 days, read-out: damage to plant, Morningglory, Ivy-leaved (100=total damage to plant; 0=no damage to plant)) of the same compound?
The pest or weed control at 250 g/ha was 20%.

And the pest or weed control at 15.625 g/ha ([11]; 15.625 g ai/ha, evaluated after 13 days (100=total damage to plant; 0=no damage to plant), read-out: Pigweed, Redroot damage rating)?
Its pest or weed control at 15.625 g/ha is 0%.

What about the pest or weed control at 62.5 g/ha ([11]; 62.5 g ai/ha, evaluated after 13 days, read-out: Pigweed, Redroot damage rating (100=total damage to plant; 0=no damage to plant)) of the same compound?
Its pest or weed control at 62.5 g/ha is 10%.

And the pest or weed control at 250 g/ha ([11]; 250 g ai/ha, evaluated after 13 days, read-out: damage to plant, Pigweed, Redroot (100=total damage to plant; 0=no damage to plant))?
The pest or weed control at 250 g/ha was 10%.

What about the pest or weed control at 15.625 g/ha ([12]; 15.625 g ai/ha, evaluated after 13 days (100=total damage to plant; 0=no damage to plant), read-out: Velvetleaf damage rating) of the same compound?
The pest or weed control at 15.625 g/ha was 0%.

What about the pest or weed control at 62.5 g/ha ([12]; 62.5 g ai/ha, evaluated after 13 days, read-out: Velvetleaf damage rating (100=total damage to plant; 0=no damage to plant)) of the same compound?
Its pest or weed control at 62.5 g/ha is 10%.

And the pest or weed control at 250 g/ha ([12]; 250 g ai/ha, evaluated after 13 days, read-out: damage to plant, Velvetleaf (100=total damage to plant; 0=no damage to plant))?
Its pest or weed control at 250 g/ha is 10%.
